From patent US20260272924A1, “ISOINDOLINE DERIVATIVE, BENZOINDOLE DERIVATIVE AND USE THEREOF” (SHANGHAI HELIOSON PHARMACEUTICAL CO., LTD., priority 2023, published 2026)

system: NCI-H929 multiple myeloma cells; test: Cell Titer-GLO (CTG) assay for proliferation of NCI-H929 cells; type: cell-based; settings: Homo sapiens, 72 hours
Method: 1. Experimental objective: To determine inhibitory activities of compounds on NCI-H929 multiple myeloma cells.
NCI-H929 cells, purchased from Nanjing Cobioer Biotechnology Co., Ltd, were cultured in RPM11640 (Viva; C3010-0500) medium containing 10% fetal bovine serum (Viva, C04002-500) and 1% of penicillin-streptomycin at 37° C. with 5% of C02 and saturated humidity conditions.
The cells in logarithmic growth phase were plated at 5000 cells per well of a 96-well plate and after overnight incubation, compounds at 0.00512 nM, 0.0256 nM, 0.128 nM, 0.64 nM, 3.2 nM, 16 nM, 80 nM, and 400 nM were dosed into the plate with each dose in 2 duplicate wells. Cells were incubated at 37° C., 5% CO2 for 72 hours. After the incubation, the plate was placed at room temperature for half an hour, and then 50 μL of Cell Titer-Glo® (Promega, G7573) was added. The plate was placed on a shaker for uniform mixing for 2 minutes and was placed in the dark at room temperature for 10 minutes. The luminance signal was measured using SpectraMax Paradigm (Molecular Devices).
Cell activity inhibition rate (%)=1 00−(RLUcompound−RLUblank)/(RLUcontrol−RLUblank)×100%, where control refers to the 0.1% DMSO treatment group, and blank refers to the culture medium control. IC50 values and maximum inhibition rates of the compounds were calculated using a nonlinear regression function “Dose-Response-Inhibition” in Graphpad Prism 7.0.

Structure (SMILES) | IC50
Cc1nc(N2CCN(C3CN(Cc4ccc(Cc5ccc6c7c(cccc57)C(=O)N6C5CCC(=O)NC5=O)cc4)C3)CC2)cc(-n2cnc(C)n2)n1 (stereo not shown) [Example 48, 3-(6-(4-((3-(4-(2-methyl-6-(3-methyl-1H-1,2,4-triazol-1-yl)pyrimidin-4-yl)piperazin-1-yl)azetidin-1-yl)methyl)benzyl)-2-oxobenzo[cd]indol-1(2H)-yl)piperidin-2,6-dione] | 0.002 nM
O=C1CCC(N2C(=O)c3cccc4c(Cc5ccc(CN6CCN(CC7CCN(c8cccc(-n9ccnc9)n8)CC7)CC6)cc5)ccc2c34)C(=O)N1 (stereo not shown) [Example 8, 3-(6-(4-((4-((1-(6-(1H-imidazol-1-yl)pyridin-2-yl)piperidin-4-yl)methyl)piperazin-1-yl)methyl)benzyl)-2-oxobenzo[cd]indol-1(2H)-yl)piperidin-2,6-dione] | 0.04 nM
O=C1CCC(N2C(=O)c3cccc4c(Cc5ccc(CN6CCC(NC(=O)c7ccnc(-n8ccnc8)n7)CC6)cc5)ccc2c34)C(=O)N1 (stereo not shown) [Example 7, N-(1-(4-((1-(2,6-dioxopiperidin-3-yl)-2-oxo-1,2-dihydrobenzo[cd]indol-6-yl)methyl)benzyl)piperidin-4-yl)-2-(1H-imidazol-1-yl)pyrimidin-4-carboxamide] | 0.05 nM
O=C1CC[C@H](N2Cc3c(OCc4ccc(CN5CCN(c6cccc(-c7cncs7)n6)CC5)cc4)cccc3C2=O)C(=O)N1 [Example 19, (S)-3-(1-oxo-4-((4-((4-(6-(thiazol-5-yl)pyridin-2-yl)piperazin-1-yl)methyl)benzyl)oxy)isoindolin-2-yl)piperidin-2,6-dione] | 0.3 nM
O=C1CCC(N2C(=O)c3cccc4c(Cc5ccc(CN6CCC(Nc7ccnc(-n8ccnc8)n7)CC6)cc5)ccc2c34)C(=O)N1 (stereo not shown) [Example 9, 3-(6-(4-((4-((2-(1H-imidazol-1-yl)pyrimidin-4-yl)amino)piperidin-1-yl)methyl)benzyl)-2-oxobenzo[cd]indol-1(2H)-yl)piperidin-2,6-dione] | 0.07 nM
Cc1ncn(-c2ncc(Cl)c(N3CCN(Cc4ccc(Cc5ccc6c7c(cccc57)C(=O)N6C5CCC(=O)NC5=O)cc4)CC3)n2)n1 (stereo not shown) [Example 45, 3-(6-(4-((4-(5-chloro-2-(3-methyl-1H-1,2,4-triazol-1-yl)pyrimidin-4-yl)piperazin-1-yl)methyl)benzyl)-2-oxobenzo[cd]indol-1(2H)-yl)piperidin-2,6-dione] | 0.01 nM

Second part, the molecule after the results:

IC50 | Structure (SMILES)
0.2 nM | O=C1CCC(N2C(=O)c3cccc4c(Cc5ccc(CN6CC(CN7CCN(c8cccc(-n9ccnc9)n8)CC7)C6)cc5)ccc2c34)C(=O)N1 (stereo not shown) [Example 55, 3-(6-(4-((3-((4-(6-(1H-imidazol-1-yl)pyridin-2-yl)piperazin-1-yl)methyl)azetidin-1-yl)methyl)benzyl)-2-oxobenzo[cd]indol-1(2H)-yl)piperidin-2,6-dione]
0.1 nM | Cc1nc(N2CCN(Cc3ccc(COc4cccc5c4CN([C@H]4CCC(=O)NC4=O)C5=O)cc3)CC2)cc(-n2cnc(C)n2)n1 [Example 71, (S)-3-(4-((4-((4-(2-methyl-6-(3-methyl-1H-1,2,4-triazol-1-yl)pyrimidin-4-yl)piperazin-1-yl)methyl)benzyl)oxy)-1-oxoisoindolin-2-yl)piperidin-2,6-dione]
0.1 nM | NC(=O)c1cn(-c2cccc(N3CCN(Cc4ccc(COc5cccc6c5CN([C@H]5CCC(=O)NC5=O)C6=O)cc4)CC3)n2)cn1 [Example 57, (S)-1-(6-(4-(4-(((2-(2,6-dioxopiperidin-3-yl)-1-oxoisoindolin-4-yl)oxy)methyl)benzyl)piperazin-1-yl)pyridin-2-yl)-1H-imidazol-4-carboxamide]
0.1 nM | Cc1ncn(-c2cccc(N3CCN(Cc4ccc(COc5cccc6c5CN([C@H]5CCC(=O)NC5=O)C6=O)cc4)CC3)n2)n1 [Example 66, (S)-3-(4-((4-((4-(6-(3-methyl-1H-1,2,4-triazol-1-yl)pyridin-2-Vl)piperazin-1-yl)methyl)benzyl)oxy)-1-oxoisoindolin-2-yl)piperidin-2,6-dione]
